Data as given in patent publication US11208405B2, “Pyrrole derivatives as PLK1 inhibitors” (SENTINEL ONCOLOGY LIMITED, priority 2017, dated 2021).
Structures can show the parent of a compound that is named as a salt. Where two headings read alike, the source gives them in different places.

What was measured:
[1] = Kinetic solubility; format: physicochemical; details: kinetic from dmso stock
[2] = target: hERG ion channel (Homo sapiens, UniProt Q12809); experiment: Binding to the hERG ion channel
[3] = Stability in human hepatocytes; format: in vitro ADME
[4] = tested on: cytochrome P450 1A; experiment: Cytochrome P450 inhibition, 1A; format: in vitro ADME
[5] = target: cytochrome P450 2D6 (Homo sapiens, UniProt P10635); experiment: Cytochrome P450 inhibition, 2D6; format: in vitro ADME
Sequence of cytochrome P450 2D6 (P10635 whole entry): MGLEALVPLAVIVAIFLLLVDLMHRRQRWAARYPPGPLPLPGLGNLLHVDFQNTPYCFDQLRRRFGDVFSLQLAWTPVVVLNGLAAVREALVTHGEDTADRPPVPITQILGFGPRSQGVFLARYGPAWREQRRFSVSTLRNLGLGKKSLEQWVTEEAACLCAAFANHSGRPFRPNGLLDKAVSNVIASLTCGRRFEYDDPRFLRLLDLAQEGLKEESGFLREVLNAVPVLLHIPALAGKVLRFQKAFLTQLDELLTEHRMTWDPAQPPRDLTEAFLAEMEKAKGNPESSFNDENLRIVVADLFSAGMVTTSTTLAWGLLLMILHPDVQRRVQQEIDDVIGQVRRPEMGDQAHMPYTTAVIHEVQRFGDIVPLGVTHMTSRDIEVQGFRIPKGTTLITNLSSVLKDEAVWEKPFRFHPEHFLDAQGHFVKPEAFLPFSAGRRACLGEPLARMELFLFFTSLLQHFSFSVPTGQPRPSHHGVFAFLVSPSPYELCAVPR

[6] = Determination of brain exposure following oral dosing in mice; format: in vivo, male CD-1 mice; details: male, CD-1, mouse, 10 mg/Kg PO
Protocol: Determination of Brain Exposure Following Oral Dosing in Mice An experiment was carried out on the compound of Example 33 to determine the extent of its brain penetration following oral dosing in mice. The following protocol was used. 15 male CD-1 mice (n=3/time point) were dosed perorally with the compound of Example 33 (10 mg/kg; dose concentration 1 mg/ml; dose volume 10 mL/kg). […] Animals were housed in pre-assigned housing cages until sampling. Appropriate samples were taken at […] time points and stored immediately at −20° C. Homogenisation and protein precipitation with acetonitrile was carried out for plasma and brain. Analysis was carried out with tandem mass spectrometry using electrospray ionisation. The results of the experiment are shown in FIG. 2 and in Table 10 below.

[7] = tested on: HCT116 cells (a mutant KRAS G-13D expressing cell line); experiment: Drug resistance studies in HCT116 cells; format: cell-based; details: five times the half maximal growth inhibiting amount, twenty two days
[8] = tested on: glioblastoma cell line 909905; experiment: Glioblastoma cancer cell viability, cell line 909905; format: cell-based
Protocol: (§1) Assay to Measure the Effects of Compounds of the Invention on Glioblastoma Cancer Cell Viability
(§2) The compound of Example 33 was tested for inhibitory activity against the glioblastoma cell lines in Table 7 below.

[9] = tested on: glioblastoma cell line 906871; experiment: Glioblastoma cancer cell viability, cell line 906871; format: cell-based
Protocol: as §1, §2

[10] = tested on: glioblastoma cell line 906746; experiment: Glioblastoma cancer cell viability, cell line 906746; format: cell-based
Protocol: as §1, §2

[11] = tested on: glioblastoma cell line 687586; experiment: Glioblastoma cancer cell viability, cell line 687586; format: cell-based
Protocol: as §1, §2

[12] = tested on: glioblastoma cell line 949094; experiment: Glioblastoma cancer cell viability, cell line 949094; format: cell-based
Protocol: as §1, §2

[13] = tested on: glioblastoma cell line 909745; experiment: Glioblastoma cancer cell viability, cell line 909745; format: cell-based
Protocol: as §1, §2

[14] = tested on: glioblastoma cell line 907271; experiment: Glioblastoma cancer cell viability, cell line 907271; format: cell-based
Protocol: as §1, §2

[15] = target: T1, AURKA (Homo sapiens, UniProt O14965); experiment: Kinase selectivity assay (DiscoverX KinomeScreen), AURKA; format: binding; details: read-out: % Control
T1 construct: purchased DiscoverX
T1 sequence (O14965 whole entry): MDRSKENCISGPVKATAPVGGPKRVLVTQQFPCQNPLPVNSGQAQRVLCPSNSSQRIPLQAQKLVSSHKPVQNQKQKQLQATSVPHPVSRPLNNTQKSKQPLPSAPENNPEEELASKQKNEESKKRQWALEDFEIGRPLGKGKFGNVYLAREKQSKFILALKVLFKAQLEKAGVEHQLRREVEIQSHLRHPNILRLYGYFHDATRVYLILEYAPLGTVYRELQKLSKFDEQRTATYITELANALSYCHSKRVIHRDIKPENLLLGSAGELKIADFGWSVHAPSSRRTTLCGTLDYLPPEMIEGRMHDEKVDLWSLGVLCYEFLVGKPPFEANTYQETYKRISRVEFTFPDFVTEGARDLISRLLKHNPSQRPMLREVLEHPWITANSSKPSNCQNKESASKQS
Protocol: (§3) The compound of Example 33 was tested for off-target activity against a panel of fifty five kinases bearing functional or structural similarity to PLK1 at a concentration of 5 μM using the DiscoverX KinomeScreen assay.

[16] = target: T2, BUB1 (Homo sapiens, UniProt O43683); experiment: Kinase selectivity assay (DiscoverX KinomeScreen), BUB1; format: binding; details: BUB1, 5 μM; read-out: % Control
T2 construct: purchased DiscoverX
Protocol: as §3

[17] = target: T3, EIF2AK1 (Homo sapiens, UniProt Q9BQI3); experiment: Kinase selectivity assay (DiscoverX KinomeScreen), EIF2AK1; format: binding; details: EIF2AK1, 5 μM; read-out: % Control
T3 construct: purchased DiscoverX
Protocol: as §3

[18] = target: T4, ERN1 (Homo sapiens, UniProt O75460); experiment: Kinase selectivity assay (DiscoverX KinomeScreen), ERN1; format: binding; details: ERN1, 5 μM; read-out: % Control
T4 construct: purchased DiscoverX
T4 sequence (O75460 19-977): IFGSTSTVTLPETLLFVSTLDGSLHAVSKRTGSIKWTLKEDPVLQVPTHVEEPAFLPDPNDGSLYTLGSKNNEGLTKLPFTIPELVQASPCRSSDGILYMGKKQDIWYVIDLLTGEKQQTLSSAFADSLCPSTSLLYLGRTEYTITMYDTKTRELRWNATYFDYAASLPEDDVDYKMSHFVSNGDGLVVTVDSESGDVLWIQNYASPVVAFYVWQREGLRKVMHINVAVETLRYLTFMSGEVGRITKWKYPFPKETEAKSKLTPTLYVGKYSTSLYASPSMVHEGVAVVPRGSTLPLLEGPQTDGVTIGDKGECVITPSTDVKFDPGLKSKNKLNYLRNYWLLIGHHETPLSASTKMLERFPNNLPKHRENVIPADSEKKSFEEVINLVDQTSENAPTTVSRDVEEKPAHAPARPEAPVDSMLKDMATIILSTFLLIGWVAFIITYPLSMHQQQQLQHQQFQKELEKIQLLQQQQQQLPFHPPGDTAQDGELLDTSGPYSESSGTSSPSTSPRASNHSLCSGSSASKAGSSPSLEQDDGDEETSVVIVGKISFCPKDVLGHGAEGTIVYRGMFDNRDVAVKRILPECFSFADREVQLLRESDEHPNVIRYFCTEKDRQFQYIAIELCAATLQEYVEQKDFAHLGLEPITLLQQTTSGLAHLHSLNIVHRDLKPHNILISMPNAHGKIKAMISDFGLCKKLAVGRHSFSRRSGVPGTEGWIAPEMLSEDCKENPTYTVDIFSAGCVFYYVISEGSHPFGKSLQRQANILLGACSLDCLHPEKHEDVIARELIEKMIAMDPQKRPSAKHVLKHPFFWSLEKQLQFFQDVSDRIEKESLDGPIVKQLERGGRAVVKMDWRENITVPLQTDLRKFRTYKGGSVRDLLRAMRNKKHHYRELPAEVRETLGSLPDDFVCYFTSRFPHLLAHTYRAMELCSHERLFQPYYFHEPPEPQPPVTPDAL
Protocol: as §3

[19] = target: T5, GAK (Homo sapiens, UniProt O14976); experiment: Kinase selectivity assay (DiscoverX KinomeScreen), GAK; format: binding; details: read-out: % Control
T5 construct: purchased DiscoverX
Protocol: as §3

[20] = target: T6, IKBKE (Homo sapiens, UniProt Q14164); experiment: Kinase selectivity assay (DiscoverX KinomeScreen), IKBKE; format: binding; details: read-out: % Control
T6 construct: purchased DiscoverX
T6 sequence (Q14164 whole entry): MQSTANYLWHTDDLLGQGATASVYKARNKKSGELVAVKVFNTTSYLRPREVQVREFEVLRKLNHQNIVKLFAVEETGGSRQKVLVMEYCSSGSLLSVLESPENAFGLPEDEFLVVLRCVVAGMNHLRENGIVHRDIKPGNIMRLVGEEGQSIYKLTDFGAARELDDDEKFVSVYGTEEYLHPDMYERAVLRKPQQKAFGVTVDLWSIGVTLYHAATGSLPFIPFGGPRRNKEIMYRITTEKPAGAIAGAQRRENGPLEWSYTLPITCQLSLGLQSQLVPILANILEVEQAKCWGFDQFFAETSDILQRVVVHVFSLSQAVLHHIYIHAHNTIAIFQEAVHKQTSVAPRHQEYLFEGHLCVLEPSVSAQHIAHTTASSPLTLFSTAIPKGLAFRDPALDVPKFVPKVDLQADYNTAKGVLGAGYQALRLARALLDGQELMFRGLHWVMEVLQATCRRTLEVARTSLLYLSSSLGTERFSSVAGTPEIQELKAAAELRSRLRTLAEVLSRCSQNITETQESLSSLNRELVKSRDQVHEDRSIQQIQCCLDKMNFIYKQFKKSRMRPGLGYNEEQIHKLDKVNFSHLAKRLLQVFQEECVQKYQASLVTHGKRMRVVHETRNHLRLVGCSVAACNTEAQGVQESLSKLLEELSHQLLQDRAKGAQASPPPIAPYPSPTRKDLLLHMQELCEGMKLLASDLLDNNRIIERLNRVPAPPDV
Protocol: as §3

[21] = target: T7, NEK1 (Homo sapiens, UniProt Q96PY6); experiment: Kinase selectivity assay (DiscoverX KinomeScreen), NEK1; format: binding; details: NEK1, 5 μM; read-out: % Control
T7 construct: purchased DiscoverX
Protocol: as §3

[22] = target: T8, NEK11 (Homo sapiens, UniProt Q8NG66); experiment: Kinase selectivity assay (DiscoverX KinomeScreen), NEK11; format: binding; details: NEK11, 5 μM; read-out: % Control
T8 construct: purchased DiscoverX
Protocol: as §3

[23] = target: T9, NEK2 (Homo sapiens, UniProt P51955); experiment: Kinase selectivity assay (DiscoverX KinomeScreen), NEK2; format: binding; details: NEK2, 5 μM; read-out: % Control
T9 construct: purchased DiscoverX
T9 sequence (P51955 whole entry): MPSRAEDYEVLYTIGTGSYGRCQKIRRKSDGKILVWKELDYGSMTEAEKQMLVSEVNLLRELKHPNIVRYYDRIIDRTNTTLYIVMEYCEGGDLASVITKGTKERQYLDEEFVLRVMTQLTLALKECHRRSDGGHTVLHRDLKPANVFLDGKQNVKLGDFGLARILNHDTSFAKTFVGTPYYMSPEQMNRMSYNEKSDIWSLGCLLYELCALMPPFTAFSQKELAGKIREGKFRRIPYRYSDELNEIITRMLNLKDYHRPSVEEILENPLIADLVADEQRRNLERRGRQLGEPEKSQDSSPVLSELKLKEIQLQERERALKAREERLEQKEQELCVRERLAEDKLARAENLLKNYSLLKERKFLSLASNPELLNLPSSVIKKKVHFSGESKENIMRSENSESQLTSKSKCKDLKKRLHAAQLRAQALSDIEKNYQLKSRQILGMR
Protocol: as §3

[24] = target: T10, NEK6 (Homo sapiens, UniProt Q9HC98); experiment: Kinase selectivity assay (DiscoverX KinomeScreen), NEK6; format: binding; details: NEK6, 5 μM; read-out: % Control
T10 construct: purchased DiscoverX
T10 sequence (Q9HC98 whole entry): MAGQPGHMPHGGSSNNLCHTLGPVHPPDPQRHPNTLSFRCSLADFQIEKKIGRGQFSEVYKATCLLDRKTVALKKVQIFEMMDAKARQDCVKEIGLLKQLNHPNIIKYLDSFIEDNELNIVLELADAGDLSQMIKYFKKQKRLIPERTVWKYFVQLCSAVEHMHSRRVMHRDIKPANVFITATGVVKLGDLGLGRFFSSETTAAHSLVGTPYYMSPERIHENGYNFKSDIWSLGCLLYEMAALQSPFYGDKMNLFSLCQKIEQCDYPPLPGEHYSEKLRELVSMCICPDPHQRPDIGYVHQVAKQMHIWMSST
Protocol: as §3

[25] = target: T11, PLK2 (Homo sapiens, UniProt Q9NYY3); experiment: Kinase selectivity assay (DiscoverX KinomeScreen), PLK2; format: binding; details: PLK2, 5 μM; read-out: % Control
T11 construct: purchased DiscoverX
Protocol: as §3

[26] = target: T12, PLK3 (Homo sapiens, UniProt Q9H4B4); experiment: Kinase selectivity assay (DiscoverX KinomeScreen), PLK3; format: binding; details: PLK3, 5 μM; read-out: % Control
T12 construct: purchased DiscoverX
Protocol: as §3

[27] = target: T13, ROCK2 (Homo sapiens, UniProt O75116); experiment: Kinase selectivity assay (DiscoverX KinomeScreen), ROCK2; format: binding; details: ROCK2, 5 μM; read-out: % Control
T13 construct: purchased DiscoverX
Protocol: as §3

[28] = target: T14, SgK110 (Homo sapiens, UniProt P0C264); experiment: Kinase selectivity assay (DiscoverX KinomeScreen), SgK110; format: binding; details: SgK110, 5 μM; read-out: % Control
T14 construct: purchased DiscoverX
Protocol: as §3

[29] = target: T15, STK35 (Homo sapiens, UniProt Q8TDR2); experiment: Kinase selectivity assay (DiscoverX KinomeScreen), STK35; format: binding; details: STK35, 5 μM; read-out: % Control
T15 construct: purchased DiscoverX
Protocol: as §3

[30] = target: T16, TLK1 (Homo sapiens, UniProt Q9UKI8); experiment: Kinase selectivity assay (DiscoverX KinomeScreen), TLK1; format: binding; details: TLK1, 5 μM; read-out: % Control
T16 construct: purchased DiscoverX
T16 sequence (Q9UKI8 whole entry): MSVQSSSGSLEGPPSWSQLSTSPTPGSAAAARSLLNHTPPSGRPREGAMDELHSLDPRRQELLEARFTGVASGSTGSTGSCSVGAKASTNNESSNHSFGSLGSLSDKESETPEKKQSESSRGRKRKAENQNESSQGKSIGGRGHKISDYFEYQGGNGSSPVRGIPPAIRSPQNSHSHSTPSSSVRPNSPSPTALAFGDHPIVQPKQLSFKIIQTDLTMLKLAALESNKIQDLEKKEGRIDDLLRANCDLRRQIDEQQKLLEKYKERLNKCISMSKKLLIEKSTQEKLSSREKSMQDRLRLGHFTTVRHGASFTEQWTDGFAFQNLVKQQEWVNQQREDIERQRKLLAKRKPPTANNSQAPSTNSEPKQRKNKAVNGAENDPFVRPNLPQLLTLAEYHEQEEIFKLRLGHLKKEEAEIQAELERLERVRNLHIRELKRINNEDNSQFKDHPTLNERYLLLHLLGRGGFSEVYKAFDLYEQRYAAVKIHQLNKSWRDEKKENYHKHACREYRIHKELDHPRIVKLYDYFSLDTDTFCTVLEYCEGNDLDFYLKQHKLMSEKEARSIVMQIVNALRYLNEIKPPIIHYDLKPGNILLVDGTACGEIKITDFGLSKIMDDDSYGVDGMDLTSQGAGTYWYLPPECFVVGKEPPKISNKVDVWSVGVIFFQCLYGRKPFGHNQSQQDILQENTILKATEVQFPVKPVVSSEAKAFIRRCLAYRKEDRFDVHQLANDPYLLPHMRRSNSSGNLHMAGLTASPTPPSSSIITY
Protocol: as §3

[31] = target: T17, TLK2 (Homo sapiens, UniProt Q86UE8); experiment: Kinase selectivity assay (DiscoverX KinomeScreen), TLK2; format: binding; details: TLK2, 5 μM; read-out: % Control
T17 construct: purchased DiscoverX
Protocol: as §3

[32] = target: T18, ULK2 (Homo sapiens, UniProt Q8IYT8); experiment: Kinase selectivity assay (DiscoverX KinomeScreen), ULK2; format: binding; details: ULK2, 5 μM; read-out: % Control
T18 construct: purchased DiscoverX
Protocol: as §3

[33] = target: T19, WEE1 (Homo sapiens, UniProt P30291); experiment: Kinase selectivity assay (DiscoverX KinomeScreen), WEE1; format: binding; details: WEE1, 5 μM; read-out: % Control
T19 construct: purchased DiscoverX
T19 sequence (P30291 whole entry): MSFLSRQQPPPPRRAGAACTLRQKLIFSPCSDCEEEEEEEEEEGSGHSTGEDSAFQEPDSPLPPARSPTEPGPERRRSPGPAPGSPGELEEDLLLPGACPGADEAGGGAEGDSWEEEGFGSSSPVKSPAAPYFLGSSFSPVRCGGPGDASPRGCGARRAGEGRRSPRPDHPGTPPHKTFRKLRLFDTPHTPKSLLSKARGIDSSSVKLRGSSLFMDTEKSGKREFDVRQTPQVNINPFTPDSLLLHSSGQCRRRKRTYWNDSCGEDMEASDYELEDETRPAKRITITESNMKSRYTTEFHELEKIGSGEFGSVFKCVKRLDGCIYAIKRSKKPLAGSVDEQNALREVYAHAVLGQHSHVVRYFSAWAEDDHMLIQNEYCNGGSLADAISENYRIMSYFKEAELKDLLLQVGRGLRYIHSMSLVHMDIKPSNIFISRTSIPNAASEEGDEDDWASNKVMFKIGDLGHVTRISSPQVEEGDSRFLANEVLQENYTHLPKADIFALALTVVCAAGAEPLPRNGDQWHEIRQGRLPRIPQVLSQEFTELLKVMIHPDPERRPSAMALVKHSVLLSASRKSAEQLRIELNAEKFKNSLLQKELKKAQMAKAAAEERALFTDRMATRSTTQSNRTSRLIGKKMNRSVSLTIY
Protocol: as §3

For `CN(C)CCNC(=O)c1ccc(-c2ccc(-c3ccc(Cl)cc3)n2-c2ccccc2C(F)(F)F)cc1` [Example 33, 4-[5-(4-chlorophenyl)-1-[2-(trifluoromethyl)phenyl]pyrrol-2-yl]-N-[2-(dimethylamino)ethyl]benzamide Hydrochloride], the solubility kinetic [1] was 32 µM, the “binding to the hERG ion channel” value [2] was > 25 µM and the hepatocyte CLint [3] was 10 µL/min/1e6 cells. For the same molecule, the “cytochrome P450 inhibition 1A” value [4] was > 10 µM, the “cytochrome P450 inhibition 2D6” value [5] was > 10 µM and the AUC(0-t) ([6]; brain, read-out: AUClast (Brain)) was 31900 ng·h/mL. It also gave a Tmax ([6]; brain, read-out: Tmax (Brain)) of 24 h, an AUC(0-t) ([6]; plasma, read-out: AUClast (Plasma)) of 5030 ng·h/mL and a Tmax ([6]; plasma, read-out: Tmax (Plasma)) of 8 h. The “formation of drug-resistant colonies” value [7] was “not”, the IC50 [8] was 276 nM and the IC50 [9] was 283 nM. For the same molecule, the IC50 [10] was 430 nM, the IC50 [11] was 489 nM and the IC50 [12] was 709 nM. For the same molecule, the IC50 [13] was 1370 nM, the IC50 [14] was 2060 nM and the remaining activity at 5 µM [15] was 83%. For the same molecule, the remaining activity at 5 µM [16] was 90%, the remaining activity at 5 µM [17] was 98% and the remaining activity at 5 µM [18] was 74%. For the same molecule, the remaining activity at 5 µM [19] was 100%, the remaining activity at 5 µM [20] was 75% and the remaining activity at 5 µM [21] was 100%. It also gave a remaining activity at 5 µM [22] of 100%, a remaining activity at 5 µM [23] of 94% and a remaining activity at 5 µM [24] of 99%. The remaining activity at 5 µM [25] was 85%, the remaining activity at 5 µM [26] was 74% and the remaining activity at 5 µM [27] was 100%. For the same molecule, the remaining activity at 5 µM [28] was 100%, the remaining activity at 5 µM [29] was 71% and the remaining activity at 5 µM [30] was 99%. The remaining activity at 5 µM [31] was 94%, the remaining activity at 5 µM [32] was 100% and the remaining activity at 5 µM [33] was 98%.
